# Patent US20200030262A1, “THERAPEUTIC SIGMA 1 RECEPTOR AGONISTS FOR TREATING LONG QT SYNDROME TYPE 1, TYPE 2, TYPE 6, TYPE 8 AND RELATED CHANNELOPATHIES” (priority 2017, published 2020)
# Tests used:
# [1] = tested on: Timothy syndrome cardiomyocytes; assay: Current-clamp action potential recordings in Timothy syndrome cardiomyocytes; type: cell-based, human; conditions: 2 hr; for paced action potential duration: paced 0.2 Hz
# Method: The Timothy syndrome and control iPSCs were differentiated into cardiomyocytes following a protocol reported previously (Song et al., 2015). The cardiomyocytes were dissociated into single cells for whole-cell patch-clamp recordings at day 31 and used for patch clamping between day 35 and 45. Whole-cell patch-clamp recordings of iPSC-derived cardiomyocytes were conducted using a MultiClap 700B patch-clamp amplifier (Molecular Devices) and an inverted microscope equipped with differential interface optics (Nikon, Ti-U). The glass pipettes were prepared using borosilicate glass (Sutter Instrument, BF150-110-10) using a micropipette puller (Sutter Instrument, Model P-97). Voltage-clamp measurements were conducted using an extracellular solution consisting of 5 mM BaCl2, 160 mM TEA and 10 mM HEPES (pH7.4 at 25° C.) and a pipette solution of 125 mM CsCl, 0.1 mM CaCl2, 10 mM EGTA, 1 mM MgCl2, 4 mM MgATP and 10 mM HEPES (pH 7.4 with CsOH at 25° C.). The protocol for voltage-clamp recordings was that cells were held at −90 mV and then depolarized to −10 mV for 400 ms at a rate of 0.1 Hz for the Ba^2+ current recordings; cells were held at −90 mV, stimulated with a 2-s family of pulses from −90 to +20 for the current-voltage relationship of the Ba^2+ currents. The recordings were conducted under room temperature. […] The recordings were conducted at 37° C. Cardiac action potentials were stimulated (2 ms, 1 nA) in current clamp mode at 37° C. (0.2 or 0.5 Hz). Recorded action potentials were analyzed using Clampfit 10.4 (Axon Instruments). Control recordings were obtained from cardiomyocytes without treatment.
# Patch-Clamp Electrophysiology of the cardiomyocytes was done as described in Example 1.
# control cardiomyocytes [2] = assay: Analysis of cardiomyocyte contractions, healthy control cardiomyocytes; type: cell-based, human; conditions: 5 μM, 2 hours
# LQTS1 cardiomyocytes = assay: Action potential recordings in LQTS1 cardiomyocytes; type: cell-based, human
# Method: (§1) The Timothy syndrome and control iPSCs were differentiated into cardiomyocytes following a protocol reported previously (Song et al., 2015). The cardiomyocytes were dissociated into single cells for whole-cell patch-clamp recordings at day 31 and used for patch clamping between day 35 and 45. Whole-cell patch-clamp recordings of iPSC-derived cardiomyocytes were conducted using a MultiClap 700B patch-clamp amplifier (Molecular Devices) and an inverted microscope equipped with differential interface optics (Nikon, Ti-U). The glass pipettes were prepared using borosilicate glass (Sutter Instrument, BF150-110-10) using a micropipette puller (Sutter Instrument, Model P-97). Voltage-clamp measurements were conducted using an extracellular solution consisting of 5 mM BaCl2, 160 mM TEA and 10 mM HEPES (pH7.4 at 25° C.) and a pipette solution of 125 mM CsCl, 0.1 mM CaCl2, 10 mM EGTA, 1 mM MgCl2, 4 mM MgATP and 10 mM HEPES (pH 7.4 with CsOH at 25° C.). The protocol for voltage-clamp recordings was that cells were held at −90 mV and then depolarized to −10 mV for 400 ms at a rate of 0.1 Hz for the Ba^2+ current recordings; cells were held at −90 mV, stimulated with a 2-s family of pulses from −90 to +20 for the current-voltage relationship of the Ba^2+ currents. The recordings were conducted under room temperature. […] Recorded action potentials were analyzed using Clampfit 10.4 (Axon Instruments). […]
# control cardiomyocytes [3] = assay: Calcium imaging of spontaneous calcium transients in control cardiomyocytes; type: cell-based, human; conditions: 5 μM, 30 min
# Method: (§2) The Nikon automatic microscope (Nikon Eclipse TiE with a motorized stage) connected to sCMOS camera (Andor Zyla sCMOS 4.2 MP) together with a stage top incubator (at 37° C., 5% CO2 and 20% O2, controlled by TOKAI HIT Hypoxia gas delivery system) were used for this experiment. Nikon objective lens 40× (Nikon CFI Plan Apo Lambda, NA 0.95) was used for single cell recordings and the cardiomyocyte culture media was used as bath solution. The cells were loaded with FluoForte calcium dye for calcium imaging following the manufacturer's instruction (ENZ-51016, Enzo Life Sciences). […] Thirty minutes after the treatment of Fluvoxamine or PRE-084, a second recording was acquired from the same cell. The calcium transient duration and the calcium transient half (50%) decay time from the recordings before and after treatment were analyzed. Paired student's t-test was used for statistics.
# LQTS6 cardiomyocytes = assay: Paced action potential recordings in LQTS6 cardiomyocytes; type: cell-based, human; conditions: 5 μM, 2 hr; paced 0.5 Hz; M54T mutation in MiRP1
# [4] = tested on: Timothy syndrome cardiomyocytes; assay: Calcium imaging (FluoForte) of spontaneous calcium transients in Timothy syndrome cardiomyocytes; type: cell-based, human; conditions: 5 μM, 30 min
# Method: as §2
# [5] = tested on: Timothy syndrome cardiomyocytes; assay: Analysis of cardiomyocyte contractions, Timothy syndrome cardiomyocytes; type: cell-based, human; conditions: for contraction irregularity / spontaneous beating rate: 5 μM, 2 hours; for contraction irregularity, long-term repeated treatment / spontaneous beating rate, long-term repeated treatment: 10 μM twice a day for seven days; for rhythmic contraction and cell survival: 10 μM, 7 days, vs untreated control group at day 27; for effects on Timothy syndrome cardiomyocytes: contraction irregularity and beating rate
# Method: […] The contraction analysis was performed as reported previously (Yazawa et al., 2011). The movies were taken before the treatment, and 2 hours after the treatment of each compound on the intact monolayer Timothy syndrome cardiomyocytes. The contraction rate and the irregularity value of each sample before and after treatment were compared using paired Student t-test.
# sodium channels = conditions: reported (Johannessen et al., 2009); cited from earlier work
# hERG current IKr [6] = type: cell-based, human; conditions: 5 uM, 2 hr; E-4031-sensitive current
# Method: (§3) The following pulse protocol was used: 5-s voltage clamp applied from 10 mV to 50 mV (Δ20 mV, holding at −40 mV, 0.1 Hz, at 25° C.). After recordings, the extracellular solution was switched to one containing 1 μM E-4031 (TOCRIS). E-4031-sensitive current was measured and analyzed as IKr current using Clampfit 10.4 (Axon Instruments).
# Sigma-1R = Sigma-1R (Homo sapiens, UniProt Q99720); conditions: cited from earlier work
# Sigma-1R, sequence (Q99720 whole entry, species assumed): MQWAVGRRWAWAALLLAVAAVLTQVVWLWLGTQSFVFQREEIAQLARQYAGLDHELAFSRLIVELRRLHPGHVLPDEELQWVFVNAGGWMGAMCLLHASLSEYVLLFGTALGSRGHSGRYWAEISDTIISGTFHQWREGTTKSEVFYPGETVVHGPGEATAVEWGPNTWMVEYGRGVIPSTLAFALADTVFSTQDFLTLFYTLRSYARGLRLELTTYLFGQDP
# [7] = Dxm concentration in the plasma of mice; type: in vivo, mouse; conditions: adult normal mice, Dxm in drinking water
# Method: (§4) Subcutaneous 4-lead electrocardiograms of isoflurane-anesthetized 12-week old mice were performed using emka ECG and recorded using iox 2.8.0.19. Recordings were conducted a day 4 and 11 after tamoxifen (Sigma-Aldrich, 50 μg/B.W.(g)/day/mouse, i.e., approximately 1 mg/day/mouse) was administrated at day 1-3. Dxm was resolved to drinking water. Total amount of taken dextromethorphan was estimated based on water consumption in each mouse (23-44 mg/kg). To obtain accurate amount of dextromethorphan administration in mice, the concentration of dextromethorphan in the plasma was measured and analyzed at Columbia University Biomarkers Core Laboratory. RR and QT intervals were measured manually using ecgAUTO v2.8.1.27, Excel and Prism 6/7 software.
# [8] = tested on: long QT syndrome type 2 iPSC-derived cardiomyocytes; assay: Action potential recordings in long QT syndrome type 2 iPSC-derived cardiomyocytes; type: cell-based, human; conditions: 5 uM, 2 hr
# Method: as §1
# [9] = tested on: Timothy syndrome iPSC-derived cardiomyocytes; assay: GCaMP6f-based calcium imaging in Timothy syndrome iPSC-derived cardiomyocytes; type: cell-based, human; conditions: 5 uM, 2 hr
# Timothy syndrome mice = assay: Mouse electrocardiography, Timothy syndrome mouse model; type: in vivo; conditions: in drinking water
# Method: A model mouse for Timothy Syndrome was generated by targeting the Rosa26 locus with a G406R mutant in the calcium channel Cacna1c gene (see FIG. 10A). The experimental design for inducing the expression of Timothy syndrome mutant with Dxm treatment (about 28 mg/kg) is shown in FIG. 10B.
# as §4
# hERG current IKr [10] = target: T1, hERG current IKr (Homo sapiens, UniProt Q12809); type: cell-based; conditions: 5 uM, 2 hr; E-4031-sensitive current
# T1 construct: hERG current IKr in Timothy syndrome iPSC-derived cardiomyocytes; endogenous in cells; host or cells: Timothy syndrome iPSC-derived cardiomyocytes
# T1 sequence (Q12809 whole entry): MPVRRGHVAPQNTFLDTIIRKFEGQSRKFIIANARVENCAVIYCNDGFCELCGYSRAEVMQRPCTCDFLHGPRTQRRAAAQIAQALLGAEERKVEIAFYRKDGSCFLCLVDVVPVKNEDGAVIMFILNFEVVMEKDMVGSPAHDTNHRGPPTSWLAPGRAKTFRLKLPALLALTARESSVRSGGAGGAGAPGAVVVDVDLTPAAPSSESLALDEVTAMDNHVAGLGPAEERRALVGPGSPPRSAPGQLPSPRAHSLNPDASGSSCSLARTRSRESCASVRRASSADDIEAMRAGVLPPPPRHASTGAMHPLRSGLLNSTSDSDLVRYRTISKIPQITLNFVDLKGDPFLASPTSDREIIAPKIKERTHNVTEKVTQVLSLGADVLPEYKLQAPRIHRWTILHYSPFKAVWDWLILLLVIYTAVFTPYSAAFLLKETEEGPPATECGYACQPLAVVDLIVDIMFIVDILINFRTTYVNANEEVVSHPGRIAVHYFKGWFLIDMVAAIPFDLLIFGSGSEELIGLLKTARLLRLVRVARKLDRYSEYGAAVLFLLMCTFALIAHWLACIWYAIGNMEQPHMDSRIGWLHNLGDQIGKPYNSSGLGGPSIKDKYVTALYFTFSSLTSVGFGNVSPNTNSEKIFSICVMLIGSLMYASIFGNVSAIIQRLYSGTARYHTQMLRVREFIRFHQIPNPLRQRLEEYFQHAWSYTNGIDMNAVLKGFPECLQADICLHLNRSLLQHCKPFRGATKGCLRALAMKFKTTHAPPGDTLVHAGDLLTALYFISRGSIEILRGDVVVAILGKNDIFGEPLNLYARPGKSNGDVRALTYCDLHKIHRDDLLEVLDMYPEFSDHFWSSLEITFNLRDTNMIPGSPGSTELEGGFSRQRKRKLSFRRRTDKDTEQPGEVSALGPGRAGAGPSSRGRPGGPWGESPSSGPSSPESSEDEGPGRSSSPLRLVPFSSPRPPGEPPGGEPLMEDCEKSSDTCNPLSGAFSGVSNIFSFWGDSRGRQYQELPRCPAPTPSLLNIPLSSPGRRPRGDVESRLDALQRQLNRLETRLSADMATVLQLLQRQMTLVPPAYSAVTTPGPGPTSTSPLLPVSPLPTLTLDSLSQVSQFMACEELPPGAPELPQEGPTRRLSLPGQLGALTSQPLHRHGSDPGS
# Method: as §3
# [11] = tested on: isogenic control (Ctrl) iPSC-derived cardiomyocytes; assay: Paced action potential recordings in isogenic control iPSC-derived cardiomyocytes; type: cell-based, human; conditions: 5 uM, 2 hr
# Method: as §1
# control littermate mice = assay: Mouse electrocardiography, control littermate mice; type: in vivo; conditions: in drinking water
# Method: as §4
structure (smiles),measurement,setting,value
COCCCC/C(=N\OCCN)c1ccc(C(F)(F)F)cc1 [Fluvoxamine],paced action potential duration,[1]; 5 μM,reduced
same,contraction rhythmicity of control cardiomyocytes,control cardiomyocytes [2],did not significantly affect
same,spontaneous beating rate of control cardiomyocytes,control cardiomyocytes [2],significantly enhanced
same,prolonged paced action potentials (APD90) in LQTS1 cardiomyocytes,"LQTS1 cardiomyocytes; 5 μM, 2 hr, paced 0.5 Hz, G269S mutation in KCNQ1",significantly reduced
same,calcium transient duration in control cardiomyocytes,control cardiomyocytes [3],did not significantly affect
same,calcium transient half decay time in control cardiomyocytes,control cardiomyocytes [3],did not significantly affect
same,normal calcium transients in control cardiomyocytes,control cardiomyocytes [3],did not significantly affect
same,prolonged paced action potentials (APD90) in LQTS6 cardiomyocytes,LQTS6 cardiomyocytes,significantly reduced
same,abnormal spontaneous calcium transients,[4],alleviated
same,spontaneous calcium transient duration,[4],significantly reduced
same,spontaneous calcium transient half decay time,[4],significantly reduced
same,contraction irregularity,[5],significantly decreased
same,spontaneous beating rate,[5],increased
same,"contraction irregularity, long-term repeated treatment",[5],reduced
same,"spontaneous beating rate, long-term repeated treatment",[5],significantly enhanced
same,rhythmic contraction and cell survival,[5],enhanced
COc1ccc(CNc2nc(NCc3ccc(OC)cc3)c3ncn(C4CCCCC4)c3n2)cc1 [Myoseverin-B],effects on Timothy syndrome cardiomyocytes,[5],positive effects
CCCN(CCC)CCc1ccc(OC)c(OCCc2ccccc2)c1 [NE-100],beneficial effects of Fluvoxamine under co-treatment with NE-100,"[5]; Fluvoxamine 5 μM + NE-100 5 μM, 2 hr",blocked
CC(C)CC(=O)Nc1[nH]nc2c1CN(C(=O)C1CCN(C)CC1)C2(C)C [PHA-793887],effects on Timothy syndrome cardiomyocytes,[5],positive effects
O=C(OCCN1CCOCC1)C1(c2ccccc2)CCCCC1 [PRE-084],abnormal spontaneous action potentials,[1]; 5 μM,rescued
same,paced action potential duration,[1]; 5 μM,rescued
same,effects on sodium channels,sodium channels,little effects
same,contraction rhythmicity of control cardiomyocytes,control cardiomyocytes [2],did not significantly affect
same,spontaneous beating rate of control cardiomyocytes,control cardiomyocytes [2],significantly enhanced
same,calcium transient duration in control cardiomyocytes,control cardiomyocytes [3],did not significantly affect
same,calcium transient half decay time in control cardiomyocytes,control cardiomyocytes [3],did not significantly affect
same,normal calcium transients in control cardiomyocytes,control cardiomyocytes [3],did not significantly affect
same,abnormal spontaneous calcium transients,[4],alleviated
same,spontaneous calcium transient duration,[4],significantly reduced
same,spontaneous calcium transient half decay time,[4],significantly reduced
same,contraction irregularity,[5],decreased
same,spontaneous beating rate,[5],significantly increased
same,"contraction irregularity, long-term repeated treatment",[5],reduced
same,"spontaneous beating rate, long-term repeated treatment",[5],significantly enhanced
same,rhythmic contraction and cell survival,[5],enhanced
COc1ccc(CCN2CCN(CCCc3ccccc3)CC2)cc1OC [SA4503],beating rate or contraction irregularity,[5]; 0.1 μM,no obvious improvement
same,contractions of Timothy syndrome cardiomyocytes,[5]; dose between 1 μM to 5 μM,stopped the contractions
COc1ccc2c(c1)[C@]13CCCC[C@@H]1[C@H](C2)N(C)CC3 [dextromethorphan],IKr current in long QT syndrome type 2 iPSC-derived cardiomyocytes,hERG current IKr [6],significantly increased
same,Ki,"Sigma-1R; read-out: Ki (Sigma-1R), known as Sigma-1R agonist",150 nM
same,plasma concentration of Dxm,[7],5 to 10 ng/mL
same,action potential duration in long QT syndrome type 2 iPSC-derived cardiomyocytes,[8],significantly shortened
same,action potential duration (APD90) in Timothy syndrome iPSC-derived cardiomyocytes,"[1]; 5 uM, paced",significantly shortened
same,cardiac transient duration,[9],significantly shortened
same,cardiac transient frequency,[9],significantly increased
same,QT intervals in Timothy syndrome mice,"Timothy syndrome mice; approximately 28 mg/kg, day 4",significantly shortened
same,QT intervals in Timothy syndrome mice,Timothy syndrome mice; day 11,significantly shortened
same,action potential duration in long QT syndrome type 1 iPSC-derived cardiomyocytes,LQTS1 cardiomyocytes; treated vs untreated,significantly shortened
same,IKr current in Timothy syndrome iPSC-derived cardiomyocytes,hERG current IKr [10],significantly increased
same,action potential duration (APD90) in isogenic control cells,[11],not changed
same,QT intervals in control littermate mice,control littermate mice,no significant effect
Fc1ccc([C@@H]2CCNC[C@H]2COc2ccc3c(c2)OCO3)cc1 [paroxetine],affinity for sigma 1 receptor,Sigma-1R,low affinity
same,effects on Timothy syndrome cardiomyocytes,[5],no beneficial effects
